Several values for one entry are separate records, joined by “and”; a condition that tells them apart may be missing. Equal values may be shown once. Entries after “also recorded” stand apart in the source; their conditions may differ. Read-outs that look alike come from different tables or passages of the source.

Data set [1] in a line: Partition/distribution coefficient (log P), shake flask method with HPLC. The class given is physicochemical. As to conditions: 1-octanol–0.05 M phosphate buffer pH 7.4, 25 °C, n = 2. On the procedure: (§1) The chromatographic purity of the compound MAS-1696, partition coefficient, chemical stability, and metabolic stability were assessed using RP-HPLC. An isocratic elution system of acetonitrile-methanol-water-acetic acid (70:18:12:0.01) was used. An injection volume of 10 µL and flow rate of 1 mL/min with a relative standard deviation of 0.5% reproducibility was maintained.
The aqueous phase and 1-octanol were stirred overnight. The MAS-1696 in 1-octanol (2 mL) and phosphate buffer (5 mL) was stirred at 25 °C in a water bath shaker for 8 h. Both layers were separated and filtered through Millipore’s 0.22 µm nylon membrane filter. The 1-octanol layer was diluted appropriately before being injected into the HPLC. The log P was determined by using the following equation:log Poct/wat = log ([solute]octanol)/([solute]unionized water)

The target of data set [2] is T1, COX2 (Homo sapiens, UniProt P35354).
T1 construct: purchased
T1 sequence (P35354 18-604): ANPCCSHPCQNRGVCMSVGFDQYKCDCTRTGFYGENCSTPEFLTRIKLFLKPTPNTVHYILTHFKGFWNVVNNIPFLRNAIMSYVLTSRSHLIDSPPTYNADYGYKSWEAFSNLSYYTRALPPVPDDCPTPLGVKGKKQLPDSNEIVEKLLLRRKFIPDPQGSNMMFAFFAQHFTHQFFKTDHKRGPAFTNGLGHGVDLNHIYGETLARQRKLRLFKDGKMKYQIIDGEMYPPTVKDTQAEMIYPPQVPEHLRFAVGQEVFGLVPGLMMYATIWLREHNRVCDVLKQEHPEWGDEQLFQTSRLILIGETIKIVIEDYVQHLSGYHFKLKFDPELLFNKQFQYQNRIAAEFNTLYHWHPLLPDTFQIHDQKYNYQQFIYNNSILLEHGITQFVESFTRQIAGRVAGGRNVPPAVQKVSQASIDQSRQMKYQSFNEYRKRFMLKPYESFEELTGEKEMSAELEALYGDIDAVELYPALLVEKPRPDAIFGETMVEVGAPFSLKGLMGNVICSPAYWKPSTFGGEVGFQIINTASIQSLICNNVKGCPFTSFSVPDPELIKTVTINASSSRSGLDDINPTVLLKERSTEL
Kind of data set: Cyclooxygenase (COX2) inhibitory assay, ovine/human COX inhibitor assay kit. In kind it is biochemical. The method, then: (§2) After that, 10 µL of arachidonic acid (100 µM), after 2 min of 1 M HCl of 50 µL and Ellman’s reagent, was added. The absorbance at 410 nm was measured spectrophotometrically against the blank. The selectivity index was calculated as follows:SI = IC50 COX1/IC50 COX2

Data set [3] can be described thus: In vitro stability in simulated gastric fluid (HCl buffer pH 2). Conditions: for % MAS-1696 Left in the Simulated Gastric Fluid of pH 2: 37 °C. In kind it is physicochemical. The method, then: as §1
The HCl buffer (pH 2) at 37 °C was used to evaluate the chemical stability of MAS-1696. To a 400 µL solution of MAS-1696 (10 mg/mL in chloroform), 3.6 mL of HCl buffer (pH 2) was added and kept on a shaker plate at 37 °C. Aliquots (400 µL) collected at different time points were mixed with 1600 µL of acetonitrile. After centrifugation, the supernatant was subjected to HPLC analysis. The remaining percentage of MAS-1696 was determined using the formula:% remaining = (peak area at the respective time (min)/peak area at 0 min) × 100

Data set [4] has as its target T2, COX1 (Ovis aries, UniProt P05979).
T2 construct: purchased
T2 sequence (P05979 25-600): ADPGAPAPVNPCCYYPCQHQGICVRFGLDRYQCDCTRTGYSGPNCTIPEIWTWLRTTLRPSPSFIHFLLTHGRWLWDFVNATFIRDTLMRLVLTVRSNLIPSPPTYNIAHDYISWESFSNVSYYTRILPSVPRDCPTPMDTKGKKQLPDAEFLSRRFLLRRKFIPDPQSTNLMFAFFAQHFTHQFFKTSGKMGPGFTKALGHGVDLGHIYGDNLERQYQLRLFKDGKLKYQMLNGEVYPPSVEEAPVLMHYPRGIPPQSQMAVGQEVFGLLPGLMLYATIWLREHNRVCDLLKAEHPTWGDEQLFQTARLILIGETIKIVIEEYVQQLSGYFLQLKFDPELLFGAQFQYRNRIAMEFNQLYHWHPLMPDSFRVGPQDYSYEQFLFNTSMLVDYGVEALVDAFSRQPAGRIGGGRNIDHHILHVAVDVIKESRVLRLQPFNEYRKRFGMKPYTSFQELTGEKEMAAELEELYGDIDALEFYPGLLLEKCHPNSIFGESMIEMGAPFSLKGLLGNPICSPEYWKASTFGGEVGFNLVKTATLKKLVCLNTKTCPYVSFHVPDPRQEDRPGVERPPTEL
Kind of data set: Cyclooxygenase (COX1) inhibitory assay, ovine/human COX inhibitor assay kit. In kind it is biochemical. Conditions: n = 3, mean ± SD. The method, then:
as §2

In data set [5] the test system is stomach (gastric ulcers). The data set can be described thus: Determination of ulcer index (gastric damage). Conditions: S-naproxen 120 mg/kg p.o., equimolar doses of MAS-1696 or physical mixture; 4 h after treatment; n = 6. In kind it is in vivo, rats. The method, then: The fasting rats were separated into four groups (n = 6). […] After 4 h of treatment, animals were sacrificed and the stomach was separated. This removed stomach was opened along the greater curvature and cleaned using saline to check for ulcers. The ulcers were graded as: 0—Normal texture stomach 0.5—Red coloration 1.0—Spot of ulcers 1.5—Hemorrhagic streaks 2.0—Ulcers up to 3 3.0—Ulcers above 3

Data set [6] deals with carrageenan-induced paw edema. Kind of data set: Rat paw edema test induced by carrageenan. As to conditions: carrageenan 1% w/v, 2 h and 4 h, S-naproxen 15 mg/kg p.o., 4-allyl guaiacol 15.46 mg/kg, n = 6. In kind it is in vivo, Wistar rats. On the procedure: In vivo studies were performed as per the guidelines issued by the WHO, Geneva. The protocol was approved by the IAEC for animal handling. The Wistar rats (male; 225–250 g) and ICR mice (20–25 g) were procured from the Animal House facility of Panjab University Chandigarh. The anti-inflammatory activity of MAS-1696 was determined by injecting carrageenan in rat paws as published by us previously. The different groups of rats with six animals in each group were administered the drug. The fresh solution of carrageenan (Type IV, 0.1 mL, 1%) was used to induce acute edema by injecting it under the plantar aspect of the left hind paw. One […] (0.9%) of saline was administered to the right paw (control group). A plethysmometer was used to measure the change in the paw volume between two and four hours after the carrageenan challenge.

Data set [7] is described as follows: In vitro human plasma stability. Conditions: for % MAS-1696 Left in Human Plasma: 37 °C. The class given is in vitro ADME. The method, then:
as §1
To a 50 µL solution of MAS-1696 (10 mg/mL in chloroform), 900 µL of human plasma was added and kept on a shaker plate at 37 °C. Aliquots (100 µL) were collected at different intervals and mixed with 900 µL of acetonitrile for precipitation of proteins. After centrifugation, the supernatant was subjected to HPLC analysis. The remaining percentage of the conjugate was calculated using the formula:% remaining = (peak area at the respective time (min)/peak area at 0 min) × 100.

The target of data set [8] is T3, human recombinant 5-LOX (Homo sapiens, UniProt P09917).
T3 construct: purchased
T3 sequence (P09917 1-674): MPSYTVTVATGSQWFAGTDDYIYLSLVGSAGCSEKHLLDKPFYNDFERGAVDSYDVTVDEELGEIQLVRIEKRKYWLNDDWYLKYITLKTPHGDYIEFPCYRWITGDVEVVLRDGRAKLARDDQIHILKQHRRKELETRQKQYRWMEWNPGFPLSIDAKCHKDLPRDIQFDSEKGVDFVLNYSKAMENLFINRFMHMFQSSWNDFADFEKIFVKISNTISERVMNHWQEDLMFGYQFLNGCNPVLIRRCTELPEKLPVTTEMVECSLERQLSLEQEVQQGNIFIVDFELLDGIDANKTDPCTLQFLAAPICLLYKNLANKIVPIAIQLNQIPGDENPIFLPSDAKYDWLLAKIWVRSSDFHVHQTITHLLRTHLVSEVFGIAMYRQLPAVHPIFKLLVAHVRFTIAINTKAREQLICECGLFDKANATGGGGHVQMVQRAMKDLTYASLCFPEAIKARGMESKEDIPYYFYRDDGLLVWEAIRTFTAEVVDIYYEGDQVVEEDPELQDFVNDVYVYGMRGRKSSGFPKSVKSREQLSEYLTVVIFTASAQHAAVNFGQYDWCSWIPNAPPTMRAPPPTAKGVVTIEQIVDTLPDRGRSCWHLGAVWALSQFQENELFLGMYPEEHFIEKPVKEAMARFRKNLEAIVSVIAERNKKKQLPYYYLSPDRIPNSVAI
Kind of data set: 5-Lipoxygenase inhibitory assay (5-LOX assay kit). In kind it is biochemical. On the procedure: The MAS 1696 was tested against human recombinant 5-LOX using a 5-LOX assay kit. Briefly, 5-LOX solution (90 µL) was added with various MAS-1696 concentrations. The arachidonic acid (10 µL) was further added and the absorbance was measured at 490 nm against the blank.

Data set [9] can be described thus: Aqueous solubility in buffer pH 7.4 (HPLC). In kind it is physicochemical. Conditions: aqueous buffer of pH 7.4, HPLC.

What is called logP is a log measure of how a compound divides between an organic and an aqueous phase. The term melting point denotes the temperature, or range, at which the solid turns liquid. What is called IC50 is the concentration that inhibits the measured activity by half. Consider `C=CCc1ccc(OC(=O)[C@@H](C)c2ccc3cc(OC)ccc3c2)c(OC)c1` [MAS-1696, (S)-4-Allyl-2-methoxyphenyl 2-(2-methoxynaphthalen-6-yl)propanoate], for which the melting point was in the range of 99 to 100 °C. This molecule came in with a logP at 8 h in data set [1] of 4.7 ± 0.26. In addition, the “Selectivity Index” value in [2] (SI = IC50 COX1/IC50 COX2) is given as 1.1. Moreover, in data set [2] (n = 3, mean ± SD, read-out: IC50 COX2 (converted)), the IC50 was 7.76 µM. For the same molecule, the “Rise in selectivity for COX2 over COX1 (COX selectivity index) compared to naproxen” value in [2] (vs parent compound naproxen) is 23%. The “% MAS-1696 Left in the Simulated Gastric Fluid of pH 2” value (from here on “% MAS-1696 Left … of pH 2”) in data set [3] (0 h) is given as 100%. The “% MAS-1696 Left … of pH 2” value in data set [3] (2 h) is 96.16%. In addition, the “% MAS-1696 Left … of pH 2” value in data set [3] (5 h) is listed as 90.72%. The “% MAS-1696 Left … of pH 2” value in data set [3] (8 h) is given as 83.30%. Moreover, the “% MAS-1696 Left … of pH 2” value in data set [3] (12 h) is 77% and 77.03%. Besides, the “% of MAS-1696 hydrolyzed in simulated gastric fluid” value (“% of MAS-1696 hydrolyzed” below) in [3] (pH 2, 0 h) is 0%. Also, the “% of MAS-1696 hydrolyzed” value in data set [3] (pH 2, 2 h) was 3.84%. Further, the “% of MAS-1696 hydrolyzed” value in data set [3] (pH 2, 5 h) is reported as 9.28%. Also, the “% of MAS-1696 hydrolyzed” value in data set [3] (pH 2, 8 h) was 16.7%. Besides, the “% of MAS-1696 hydrolyzed” value in [3] (pH 2, 12 h) is 22.97%. The same molecule had a half-maximal inhibitory concentration (IC50) in [4] of 8.5 µM. For the same molecule, the “Ulcer score / gastric damage” value in data set [5] was “considerably less damage; also recorded: significantly less stomach damage”. Moreover, in data set [6], the “Anti-inflammatory effect (edema, paw volume)” value (from here on “Anti-inflammatory effect”) was “anti-inflammatory potency comparable or even superior to S-naproxen”. The “Anti-inflammatory effect” value in data set [6] (listed as MAS1696) is reported as “better anti-inflammatory effect when compared with S-naproxen”. Also, the “% MAS-1696 Left in Human Plasma” value in [7] (0 min) was found to be 100%. Further, the “Hydrolysis in human plasma (in words)” value in data set [7] (80% human plasma, 0, 30 and 60 min) is “completely hydrolyzed within half an hour; also recorded: readily hydrolyzed”. Moreover, the “% MAS-1696 Left in Human Plasma” value in [7] (30 min) is listed as 0%. Further, the “% MAS-1696 Left in Human Plasma” value in data set [7] (60 min) came to 0%. For the same molecule, the IC50 in data set [8] (n = 3, mean ± SD, read-out: IC50 5-LOX (converted)) was 28.5 µM. The “Solubility (pH 7.4)” value in [9] is recorded as “BDL”.
Take `COc1ccc2cc([C@H](C)C(=O)O)ccc2c1` [Naproxen, S-naproxen]: the figures for the IC50 in data set [2] and in [8] were 20.1 µM and 36.5 µM, respectively. The “Ulcer score / gastric damage” value in data set [5] is given as “substantial rise in ulcer score compared with the control”. The “Anti-inflammatory effect” value in data set [6] is “significant decrease in the edema and paw volume”.

The record behind these values is publication PMC9609004, “Computational Design, Synthesis, and Pharmacological Evaluation of Naproxen-Guaiacol Chimera for Gastro-Sparing Anti-Inflammatory Response by Selective COX2 Inhibition” (Molecules, 2022).
